Results on 28 molecules are retold here after patent publication US9765087B2, “Benzimidazole derivatives” (ENANTA PHARMACEUTICALS, INC., priority 2009, dated 2017).

A value given as a limit tells only on which side of the number the result lay.

One assay has as its system HCV 1a genotype replicon. In words: HCV replicon assay (qRT-PCR or luciferase), genotype 1a. It is filed as cell-based. To be noted: Hepatitis C virus, Table 12, numeric values, read-out: 1a EC50. How it is done:
HCV replicon cell lines (kindly provided by R. Bartenschlager) isolated from colonies as described by Lohman et. al. (Lohman et al. (1999) Science 285: 110-113, expressly incorporated by reference in its entirety) and used for all experiments. The HCV replicon has the nucleic acid sequence set forth in EMBL Accession No.: AJ242651, the coding sequence of which is from nucleotides 1801 to 8406.
These cell lines were maintained at 37° C., 5% CO2, 100% relative humidity in DMEM (Cat#11965-084, Invitrogen), with 10% fetal calf serum (“FCS”, Invitrogen), 1% non-essential amino acids (Invitrogen), 1% of Glutamax (Invitrogen), 1% of 100× penicillin/streptomycin (Cat#15140-122, Invitrogen) and Geneticin (Cat#10131-027, Invitrogen) at 0.75 mg/ml or 0.5 mg/ml for 11-7 and Huh-luc/neo-ET cells, respectively.
EC50 values of single agent compounds and combinations were determined by HCV RNA detection using quantitative RT-PCR, according to the manufacturer's instructions, with a TAQMAN® One-Step RT-PCR Master Mix Reagents Kit (Cat#AB 4309169, Applied Biosystems) on an ABI Model 7500 thermocycler. The TaqMan primers used for detecting and quantifying HCV RNA were obtained from Integrated DNA Technologies. HCV RNA was normalized to GAPDH RNA levels in drug-treated cells, which is detected and quantified using the Human GAPDH Endogenous Control Mix (Applied Biosystems, AB 4310884E). Total cellular RNA is purified from 96-well plates using the RNAqueous 96 kit (Ambion, Cat# AM1812). Chemical agent cytotoxicity is evaluated using an MTS assay according to the manufacturer's directions (Promega).
Since clinical drug resistance often develops in viral infections following single agent therapies, there is a need to assess the additive, antagonistic, or synergistic properties of combination therapies. We used the HCV replicon system to assess the potential use of the compound of the present invention or in combination therapies with Interferon alpha, cyclosporine analogs and inhibitors targeting other HCV proteins. The acute effects of a single or combinations of drugs are studied in the “Huh-luc/neo-ET” replicon with each chemical agent titrated in an X or Y direction in a 6 point two-fold dilution curve centered around the EC50 of each drug. Briefly, replicon cells are seeded at 7,000 cells per well in 90 ul DMEM (without phenol red, Invitrogen Cat.#31053-036) per well with 10% FCS, 1% non-essential amino acids, 1% of Glutamax and 1% of 100× penicillin/streptomycin and incubated overnight at 37° C., 5% CO2, 100% relative humidity. 16-20 h after seeding cells, test compounds previously solubilized and titrated in dimethyl sulfoxide (“DMSO”) from each X plate and Y plate are diluted 1:100 in DMEM (without phenol red, Invitrogen Cat.#31053-036) with 10% FCS, 1% non-essential amino acids, 1% of Glutamax and 1% of 100× penicillin/streptomycin and added directly to the 96-well plate containing cells and growth medium at a 1:10 dilution for a final dilution of compound and DMSO of 1:1000 ([…] final concentration). Drug treated cells are incubated at 37° C., 5% CO2, 100% relative humidity for 72 hours before performing a luciferase assay using 100 ul per well BriteLite Plus (Perkin Elmer) according to the manufacturer's instructions. Data analysis utilizes the method published by Prichard and Shipman (Antiviral Research, 1990. 14:181-205). Using this method, the combination data are analyzed for antagonistic, additive, or synergistic combination effects across the entire combination surface created by the diluted compounds in combination.
The compounds of the present invention can be effective against the HCV 1b genotype. It should also be understood that the compounds of the present invention can inhibit multiple genotypes of HCV. In one embodiment compound of the present invention are active against the 1a, 1b, 2a, 2b, 3a, 4a, and 5a genotypes. […] EC50 ranges against HCV 1b and 1a are as follows: A>10 nM; B1-10 nM; C<1 nM.
What is called EC50 is the concentration at which the effect is half-maximal. Take `COC(=O)N[C@H](C(=O)N1CC2(CC2)C[C@H]1c1nc2ccc(C#Cc3ccc(-c4cnc([C@@H]5CCCN5C(=O)[C@H](NC(=O)OC)c5cccc(OC)c5)[nH]4)cc3)cc2[nH]1)C(C)C` [Example 597]: the concentration giving a half-maximal response (EC50) was 0.227 nM.

In the case of `COC(=O)N[C@@H](CC(N)=O)C(=O)N1CCC[C@H]1c1ncc(-c2ccc(C#Cc3ccc4nc([C@@H]5CC6(CC6)CN5C(=O)[C@@H](NC(=O)OC)C(C)C)[nH]c4c3)cc2)[nH]1` [Example 619], the concentration giving a half-maximal response (EC50) was 0.699 nM.

As to `COC(=O)N[C@H](C(=O)N1CC2(CC2)C[C@H]1c1nc(-c2ccc(C#Cc3ccc4[nH]c([C@@H]5C[C@]6(CCCO6)CN5C(=O)[C@@H](NC(=O)OC)C(C)C)nc4c3)cc2)c[nH]1)C(C)C` [Example 626], the EC50 came to 1.34 nM.

Take `COC(=O)N[C@H](C(=O)N1CC2(CC2)C[C@H]1c1ncc(-c2ccc(C#Cc3ccc4nc([C@@H]5CC6(CC6)CN5C(=O)[C@H](NC(=O)OC)c5ccc(Cl)cc5)[nH]c4c3)cc2)[nH]1)C(C)C` [Example 650]: the concentration giving a half-maximal response (EC50) came out at 0.079 nM.

Take `COC(=O)N[C@H](C(=O)N1CC2(CC2)C[C@H]1c1ncc(-c2ccc(C#Cc3ccc4nc([C@@H]5CC6(CC6)CN5C(=O)[C@H](NC(=O)OC)c5cccc(OC)c5)[nH]c4c3)cc2)[nH]1)C(C)C` [Example 654]: the 50% effective concentration (EC50) is 0.185 nM.

As to `CC[C@H](NC(=O)OC)C(=O)N1CC2(CC2)C[C@H]1c1ncc(-c2ccc(C#Cc3ccc4nc([C@@H]5CC6(CC6)CN5C(=O)[C@H](CC)NC(=O)OC)[nH]c4c3)cc2)[nH]1` [Example 655], the EC50 was found to be 0.034 nM.

Still in this assay, the particulars now being: Hepatitis C virus, Table 12, range class, read-out: 1a EC50 Range.
With `COC(=O)N[C@H](C(=O)N1CC2(CC2)C[C@H]1c1nc2ccc(C#Cc3ccc(-c4cnc([C@@H]5CCCN5C(=O)[C@H](NC(=O)OC)c5ccsc5)[nH]4)cc3)cc2[nH]1)C(C)C` [Example 596], the EC50 was below 1 nM.

Take `COC(=O)N[C@H](C(=O)N1CC2(CC2)C[C@H]1c1nc2ccc(C#Cc3ccc(-c4cnc([C@@H]5CCCN5C(=O)[C@@H](NC(=O)OC)[C@@H](C)OC)[nH]4)cc3)cc2[nH]1)C(C)C` [Example 598]: the EC50 is below 1 nM.

`COC(=O)N[C@H](C(=O)N1CC2(CC2)C[C@H]1c1ncc(-c2ccc(C#Cc3ccc4nc([C@@H]5CC6(CC6)CN5C(=O)[C@H](NC(=O)OC)C5CCCC5)[nH]c4c3)cc2)[nH]1)C(C)C` [Example 599]: the EC50 was 1 to 10 nM.

With `COC(=O)N[C@H](C(=O)N1CC2(CC2)C[C@H]1c1nc2ccc(C#Cc3ccc(-c4cnc([C@@H]5CCCN5C(=O)[C@H](NC(=O)OC)c5cccc(F)c5)[nH]4)cc3)cc2[nH]1)C(C)C` [Example 600], the EC50 was below 1 nM.

As to `COC(=O)N[C@H](C(=O)N1CC2(CC2)C[C@H]1c1ncc(-c2ccc(C#Cc3ccc4nc([C@@H]5CC6(CC6)CN5C(=O)[C@H](NC(=O)OC)[C@H](C)c5ccccc5)[nH]c4c3)cc2)[nH]1)C(C)C` [Example 601], the EC50 was above 10 nM.

With `COC(=O)N[C@H](C(=O)N1CC2(CC2)C[C@H]1c1ncc(-c2ccc(C#Cc3ccc4nc([C@@H]5CC6(CC6)CN5C(=O)[C@@H](NC(=O)OC)C5CC5)[nH]c4c3)cc2)[nH]1)C(C)C` [Example 602], the concentration for a half-maximal effect (EC50) was below 1 nM.

For `COC(=O)N[C@H](C(=O)N1CC2(CC2)C[C@H]1c1nc2ccc(C#Cc3ccc(-c4cnc([C@@H]5C[C@@H](C)CN5C(=O)[C@@H](NC(=O)OC)C5CCOCC5)[nH]4)cc3)cc2[nH]1)C(C)C` [Example 603], the concentration giving a half-maximal response (EC50) was below 1 nM.

Turning to `COC(=O)N[C@H](C(=O)N1CC2(CC2)C[C@H]1c1nc2ccc(C#Cc3ccc(-c4cnc([C@@H]5CCCN5C(=O)[C@H](NC(=O)OC)[C@H](C)c5ccccc5)[nH]4)cc3)cc2[nH]1)C(C)C` [Example 604], the EC50 is above 10 nM.

As to `CC[C@@H](C)[C@H](NC(=O)OC)C(=O)N1CCC[C@H]1c1ncc(-c2ccc(C#Cc3ccc4nc([C@@H]5CC6(CC6)CN5C(=O)[C@@H](NC(=O)OC)C(C)C)[nH]c4c3)cc2)[nH]1` [Example 605], the half-maximal effective concentration (EC50) was below 1 nM.

For `CC[C@@H](C)[C@H](NC(=O)OC)C(=O)N1CC2(CC2)C[C@H]1c1ncc(-c2ccc(C#Cc3ccc4nc([C@@H]5CC6(CC6)CN5C(=O)[C@@H](NC(=O)OC)C(C)C)[nH]c4c3)cc2)[nH]1` [Example 606], the EC50 is below 1 nM.

Take `COC(=O)N[C@H](C(=O)N1CC2(CC2)C[C@H]1c1nc2ccc(C#Cc3ccc(-c4cnc([C@@H]5CCCN5C(=O)[C@@H](NC(=O)OC)C5CCCCC5)[nH]4)cc3)cc2[nH]1)C(C)C` [Example 607]: the half-maximal effective concentration (EC50) is below 1 nM.

As to `COC(=O)N[C@H](C(=O)N1CCC[C@H]1c1nc(-c2ccc3cc(-c4ccc5[nH]c([C@@H]6CC7(CC7)CN6C(=O)[C@@H](NC(=O)OC)C(C)C)nc5c4)cc(F)c3c2)c[nH]1)C(C)C` [Example 608], the half-maximal effective concentration (EC50) was below 1 nM.

As for `COC(=O)N[C@H](C(=O)N1CC2(CC2)C[C@H]1c1ncc(-c2ccc(C#Cc3ccc4nc([C@@H]5CC6(CC6)CN5C(=O)[C@@H](NC(=O)OC)c5ccccc5)[nH]c4c3)cc2)[nH]1)c1ccccc1` [Example 609], the EC50 was in the range of 1 to 10 nM.

For the molecule `COC(=O)N[C@H](C(=O)N1CC2(CC2)C[C@H]1c1ncc(-c2ccc(C#Cc3ccc4nc([C@@H]5CC6(CC6)CN5C(=O)[C@H](NC(=O)OC)c5cccnc5)[nH]c4c3)cc2)[nH]1)C(C)C` [Example 610], the EC50 was below 1 nM.

As to `COC(=O)N[C@@H](C(=O)N1CC2(CC2)C[C@H]1c1ncc(-c2ccc(C#Cc3ccc4nc([C@@H]5CC6(CC6)CN5C(=O)[C@H](NC(=O)OC)c5ccc(Cl)cc5)[nH]c4c3)cc2)[nH]1)c1ccc(Cl)cc1` [Example 611], the EC50 is above 10 nM.

With `COC(=O)N[C@@H](CCCCNC(N)=O)C(=O)N1CCC[C@H]1c1nc(-c2ccc(C#Cc3ccc4[nH]c([C@@H]5CC6(CC6)CN5C(=O)[C@@H](NC(=O)OC)C(C)C)nc4c3)cc2)c[nH]1` [Example 620], the half-maximal effective concentration (EC50) was below 1 nM.

For `COC(=O)N[C@H](C(=O)N1CC2(CC2)C[C@H]1c1nc2ccc(C#Cc3ccc(-c4cnc([C@@H]5CC6(CC6)CN5C(=O)[C@@H](N)C(C)C)[nH]4)cc3)cc2[nH]1)C(C)C` [Example 624], the EC50 is above 10 nM.

Turning to `COC(=O)N[C@H](C(=O)N1C[C@H](CF)C[C@H]1c1ncc(-c2ccc(C#Cc3ccc4nc([C@@H]5C[C@@]6(CCCO6)CN5C(=O)[C@@H](NC(=O)OC)C(C)C)[nH]c4c3)cc2)[nH]1)C(C)C` [Example 634], the EC50 was below 1 nM.

In the case of `COC(=O)N[C@H](C(=O)N1CC2(CC2)C[C@H]1c1ncc(-c2ccc(C#Cc3ccc4nc([C@@H]5CC6(CC6)CN5C(=O)[C@H](NC(=O)OC)c5ccccc5Cl)[nH]c4c3)cc2)[nH]1)C(C)C` [Example 651], the 50% effective concentration (EC50) was below 1 nM.

With `COC(=O)N[C@H](C(=O)N1CC2(CC2)C[C@H]1c1ncc(-c2ccc(C#Cc3ccc4nc([C@@H]5CC6(CC6)CN5C(=O)[C@H](NC(=O)OC)c5ccccc5F)[nH]c4c3)cc2)[nH]1)C(C)C` [Example 652], the EC50 is below 1 nM.

`COC(=O)N[C@H](C(=O)N1CC2(CC2)C[C@H]1c1ncc(-c2ccc(C#Cc3ccc4nc([C@@H]5CC6(CC6)CN5C(=O)[C@H](NC(=O)OC)c5cccc(F)c5)[nH]c4c3)cc2)[nH]1)C(C)C` [Example 653]: the EC50 was below 1 nM.

The assay is the same for the next values; noted with them: Hepatitis C virus, read-out: 1a EC50 Range, Table 12, range class.
Turning to `COC(=O)N[C@H](C(=O)N1C[C@]2(CNC(=O)O2)C[C@H]1c1ncc(-c2ccc(C#Cc3ccc4nc([C@@H]5CC6(CC6)CN5C(=O)[C@@H](NC(=O)OC)C(C)C)[nH]c4c3)cc2)[nH]1)C(C)C` [Example 617], the EC50 was 1 to 10 nM.
